These results are taken from US20080249075A1, “C11 Modified Retrosteroids as Progesterone Receptor Modulator Compounds” (Solvay Pharmaceuticals GmbH, priority 2007, published 2008).

In test [1] the target is T1, human progesterone receptor (Homo sapiens, UniProt P06401).
T1 sequence (P06401 679-933 limits assumed): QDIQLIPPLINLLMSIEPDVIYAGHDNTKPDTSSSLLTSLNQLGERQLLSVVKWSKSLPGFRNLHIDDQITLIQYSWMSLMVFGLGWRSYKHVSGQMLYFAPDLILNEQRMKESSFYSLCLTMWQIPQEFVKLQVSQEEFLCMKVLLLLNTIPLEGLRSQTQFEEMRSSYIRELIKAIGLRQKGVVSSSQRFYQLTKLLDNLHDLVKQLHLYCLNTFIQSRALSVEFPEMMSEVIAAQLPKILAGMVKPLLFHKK
Briefly: Progesterone receptor binding assay, human PR (CEREP). Conditions: 3H-R5020 as ligand, MCF7 cells as source of PR; for Ki: read-out: Human PR binding (pKi) (converted). The protocol:
The progesterone receptor (PR) binding assays were performed at CEREP (Celle I'Evescault, France).
The binding to the human progesterone receptor (Assay Cat No: Progesterone receptor-814h) was be measured using 3H-R5020 as ligand and MCF7 cells as the source of progesterone receptor. The assay is performed as described by Eckert & Katzenellenbogen [1982]. The binding to the bovine progesterone receptor (Assay Cat No: Progesterone receptor-814) was measured using 3H-R5020 as ligand and uterus tissue as the source of progesterone receptor. The assay was performed as described by Hurd & Moudgil [1988].
The results of the receptor binding assay are presented as the individual pKi values, which were determined by measuring the binding activity to the human or bovine PR, as indicated, for a concentration range of each compound.

Test [2] concerns T47D human breast carcinoma cells. Put plainly: cells. To be noted: for activation at 0.1 µM / inhibition at 0.1 µM / EC50 / IC50: Homo sapiens, T47D; for activation at 0.1 µM: 48 h, read-out: PS [100 nM] (% stimulation); for inhibition at 0.1 µM: read-out: PI [100 nM] (% inhibition); for EC50: read-out: pEC50 (converted); for IC50: read-out: pIC50 (converted); for PS [100 nM] (% stimulation): agonistic mode, alkaline phosphatase induction (100% = 1 nM Dydrogesterone); for PS [100 nM] (% stimulation) / PI [100 nM] (% inhibition): compound 100 nM; for PI [100 nM] (% inhibition): antagonistic mode, inhibition of alkaline phosphatase induction by 1 nM Dydrogesterone. In kind it is cell-based. The protocol:
The progesterone-dependent modulation of alkaline phosphatase expression was examined using T47D human breast carcinoma cells [Keydar et al., 1979]. The assay was performed as previously described by Di Lorenzo et al. (1991) with the modification of using Dydrogesterone as comparative progestin to determine the antagonistic and agonistic activity.
The cell line was purchased from CLS Cell Lines Service (Hildastrasse 21, D-69214 Eppelheim, Germany). In brief, the cells were plated in 96-well plates at 40,000 cells/well using the following growth medium: RPMI 1640 with: 10% FBS, 1 mM Sodium Pyruvat MEM, 10 mM Hepes, 0.01 mg/ml Bovine insulin, and 25 μg/ml Gentamycin. After 24 h of cultivation, the growth medium was replaced with medium containing 2% fetal bovine serum and the test compounds were added to each well to achieve the appropriate compound concentration: For determination of agonistic activity only the test compounds were added; for measurement of antagonistic activity the test compounds and additionally Dydrogesterone as standard progesterone agonist was added to a final concentration of 1 nM. After 48 h of cultivation, the medium was removed and the cells were washed with 200 μl of Dulbecco's phosphate-buffered saline without calcium and magnesium (PBS(−)). Then the cells were fixed with 3.7% formaldehyde in phosphate-buffered saline for 15 min at 22° C. After washing the cells with PBS, 100 μl of a […] (pNPP) solution (pNPP Liquid Substrate System; Sigma) was added to each well and incubated for 2 h at room temperature protected from light. The reaction was stopped with 100 μl 1N NaOH and the absorbance was measured with a spectrophotometer (Victor, Perkin Elmer) at 405 nm. The results are expressed as alkaline phosphatase induction (as 100% with 1 nM Dydrogesterone) or inhibition (against alkaline phosphatase induction by 1 nM Dydrogesterone) at a certain concentration of test compound.
% stimulation=(effect compound−basal)/(effect dydro 1 nM−basal)*100% inhibition of 1 nM Dydro=100*{1-[(effect compound−basal)/(effect dydro 1 nM−basal)]}
For each compound the % inhibition (PI) and % stimulation (PS), respectively, at a compound concentration of 100 nM was determined. For selected compounds, the corresponding values were measured for several different concentrations, and subsequently were plotted against the concentration of the test compound, and used to calculate the IC50 value (for the antagonistic potency; the IC50 value is the concentration (nM), required to reduce the maximal response by 50%) and EC50 values (for the agonistic potency; the EC50 value is the effective concentration (nM) that produced 50% of the maximum response), respectively.

In general, inhibition refers to the drop in the measured response relative to a control, in per cent. On to `CC(=O)[C@H]1CC[C@H]2[C@@H]3C=CC4=CC(=O)CC[C@@]4(C)[C@@H]3[C@@H](OC(=O)Nc3ccc4c(c3)OCO4)C[C@]12C` [Compound No. 13, Benzo[1,3]dioxol-5-yl-carbamic acid dydrogesterone-11β-yl ester], for which, in test [1], the Ki was at least 631 nM. Moreover, in test [2], the activation at 0.1 µM came out at 5%, the inhibition at 0.1 µM turned out to be 73%, the EC50 was 398 nM and the IC50 is 31.6 nM.
For the molecule `COc1cc(NC(=O)O[C@H]2C[C@]3(C)[C@@H](C(C)=O)CC[C@H]3[C@@H]3C=CC4=CC(=O)CC[C@@]4(C)[C@@H]32)cc(OC)c1OC` [Compound No. 24, (3,4,5-Trimethoxy-phenyl)-carbamic acid dydrogesterone-11β-yl ester], in test [1], the Ki is 200 nM. Also, in test [2], the activation at 0.1 µM is 0%, the inhibition at 0.1 µM amounted to 88% and the IC50 was 50.1 nM.
Take `CCO[C@]1(C(C)=O)CC[C@H]2[C@@H]3C=CC4=CC(=O)C5CC5[C@@]4(C)[C@@H]3[C@@H](OC(=O)Nc3cccc(OC)c3)C[C@@]21C` (some centres unmarked) [Compound No. 29]: in test [1], the Ki was 398 nM. Also, in test [2], the activation at 0.1 µM was 0%, the inhibition at 0.1 µM was found to be 87% and the IC50 was 5.01 nM.
On to `CC(=O)[C@H]1CC[C@H]2[C@@H]3C=CC4=CC(=O)CC[C@@]4(C)[C@@H]3[C@@H](OC(=O)Nc3cccc(/C=N/O)c3)C[C@]12C` [Compound No. 32, [3-(Hydroxyimino-methyl)-phenyl]-carbamic acid dydrogesterone-11-yl ester], for which the Ki in test [1] was 316 nM.
With `CCO[C@]1(C(C)=O)CC[C@H]2[C@@H]3C=CC4=CC(=O)CC[C@@]4(C)[C@@H]3[C@@H](OC(=O)Nc3ccc4c(c3)OCO4)C[C@@]21C` [Compound No. 34, Benzo[1,3]-dioxol-5-yl-carbamic acid 17-ethoxy-dydrogesterone-11β-yl este], in test [1], the Ki is 126 nM. Moreover, in test [2], the activation at 0.1 µM is 95% and the inhibition at 0.1 µM is 5%.
As to `CC(=O)[C@H]1CC[C@H]2[C@@H]3C=CC4=CC(=O)CC[C@@]4(C)[C@@H]3[C@@H](OC(=O)Nc3ccc4cn[nH]c4c3)C[C@]12C` [compound 41, (1H-Indazol-6-yl)-carbamic aciddydrogesterone-11-yl ester], the Ki in test [1] was 316 nM. Further, in test [2], the activation at 0.1 µM was 1%, the inhibition at 0.1 µM came out at 96% and the IC50 is 6.31 nM.
Broadly, the pEC50 is the EC50 on a negative log10 scale, so that one unit is a factor of ten. High values mean a small EC50, low ones a large EC50. `CC(=O)[C@H]1CC[C@H]2[C@@H]3C=CC4=CC(=O)CC[C@@]4(C)[C@@H]3C(OC(=O)NCc3ccc4c(c3)OCO4)C[C@]12C` (some centres unmarked) [compound 42, Benzo[1,3]dioxol-5-ylmethyl-carbamic acid dydrogesterone-11-yl ester]: the “Human PR binding (pKi)” value in test [1] is given as 6.8. Further, in test [2] (T47D cells), the “PS [100 nM] (% stimulation)” value came to 76.0% and the “PI [100 nM] (% inhibition)” value came out at 6.0%. The molecule further had a pEC50 in test [2] (agonistic potency, T47D cells) of 7.0.
`COc1ccccc1N1CCN(C(=O)O[C@H]2C[C@]3(C)[C@@H](C(C)=O)CC[C@H]3[C@@H]3C=CC4=CC(=O)CC[C@@]4(C)[C@@H]32)CC1` [compound 43, 4-(2-Methoxy-phenyl)-piperazine-1-carboxylic aciddydrogesterone-11-yl ester]: the Ki in test [1] is at least 631 nM.
For the molecule `CC(=O)[C@H]1CC[C@H]2[C@@H]3C=CC4=CC(=O)CC[C@@]4(C)[C@@H]3[C@@H](OC(=O)Nc3cnc4ccccc4c3)C[C@]12C` [compound 51, Quinolin-3-yl-carbamic aciddydrogesterone-11-yl ester], the Ki in test [1] is 398 nM. Also, in test [2], the activation at 0.1 µM came out at 5%, the inhibition at 0.1 µM stood at 59% and the IC50 was 100 nM.
For the molecule `COc1ccc(CNC(=O)O[C@H]2C[C@]3(C)[C@@H](C(C)=O)CC[C@H]3[C@@H]3C=CC4=CC(=O)CC[C@@]4(C)[C@@H]32)cc1` [compound 55, (4-Methoxy-benzyl)-carbamicacid dydrogesterone-11-yl ester], in test [1], the Ki is 100 nM. Besides, in test [2], the activation at 0.1 µM worked out at 143%, the inhibition at 0.1 µM is -79% and the EC50 was 50.1 nM.
For `CC(=O)[C@H]1CC[C@H]2[C@@H]3C=CC4=CC(=O)CC[C@@]4(C)[C@@H]3[C@@H](OC(=O)Nc3cccc(OC(F)(F)F)c3)C[C@]12C` [compound 63, (3-Trifluoromethoxy-phenyl)-carbamic acid dydrogesterone-11-yl ester], the Ki in test [1] was at least 631 nM.
Same read-out and setting: the same measure for `CC(=O)[C@H]1CC[C@H]2[C@@H]3C=CC4=CC(=O)CC[C@@]4(C)[C@@H]3[C@@H](OC(=O)NCc3ccc(S(C)(=O)=O)cc3)C[C@]12C` [compound 67, (4-Methanesulfonyl-benzyl)-carbamic acid dydrogesterone-11-yl ester]: at least 631 nM.
Regarding `CC(=O)[C@H]1CC[C@H]2[C@@H]3C=CC4=CC(=O)CC[C@@]4(C)[C@@H]3[C@@H](OC(=O)Nc3cccc(C#N)c3)C[C@]12C` [compound 71, (3-Cyano-phenyl)-carbamic aciddydrogesterone-11-yl ester], the Ki in test [1] is at least 631 nM.
The same measure, in the same setting: the value for `CC(=O)[C@H]1CC[C@H]2[C@@H]3C=CC4=CC(=O)CC[C@@]4(C)[C@@H]3[C@@H](OC(=O)Nc3ccc4c(=O)cc(C)oc4c3)C[C@]12C` [compound 77, (2-Methyl-4-oxo-4H-chromen-7-yl)-carbamic aciddydrogesterone-11-yl ester] was at least 631 nM; that for `CC(=O)[C@H]1CC[C@H]2[C@@H]3C=CC4=CC(=O)CC[C@@]4(C)[C@@H]3[C@@H](OC(=O)NCc3cccc(F)c3)C[C@]12C` [compound 78, (3-Fluoro-benzyl)-carbamic aciddydrogesterone-11-yl ester] was 398 nM.
Broadly, the pIC50 is the negative decadic logarithm of the IC50, by convention in mol/L. Low readings indicate a large IC50, high ones a small IC50. On to `CC(=O)c1cccc(NC(=O)OC2C[C@]3(C)[C@@H](C(C)=O)CC[C@H]3[C@@H]3C=CC4=CC(=O)CC[C@]4(C)[C@@H]23)c1` (some centres unmarked) [compound 81, (3-Acetyl-phenyl)-carbamic aciddydrogesterone-11-yl ester], for which the “Human PR binding (pKi)” value in test [1] stood at 6.6. Further, in test [2] (T47D cells), the “PS [100 nM] (% stimulation)” value worked out at 1.0% and the “PI [100 nM] (% inhibition)” value stood at 72.0%. This molecule also had a pIC50 in test [2] (antagonistic potency against 1 nM Dydrogesterone, T47D cells) of 7.3.
As for `CC(=O)Nc1ccc(NC(=O)OC2C[C@]3(C)[C@@H](C(C)=O)CC[C@H]3[C@@H]3C=CC4=CC(=O)CC[C@@]4(C)[C@H]23)cc1` (some centres unmarked) [compound 82, (4-Acetylamino-phenyl)-carbamicacid dydrogesterone-11-yl ester], in test [1], the “Human PR binding (pKi)” value came out at 6.6. In test [2] (T47D cells), the “PS [100 nM] (% stimulation)” value is recorded as 0.0% and the “PI [100 nM] (% inhibition)” value is on record as 40.0%.
For `CC(=O)[C@H]1CC[C@H]2[C@@H]3C=CC4=CC(=O)CC[C@@]4(C)[C@@H]3[C@@H](OC(=O)Nc3ccc(F)c(C#N)c3)C[C@]12C` [compound 85, (3-Cyano-4-fluoro-phenyl)-carbamic acid dydrogesterone-11-yl ester], the Ki in test [1] is 501 nM.
